Measurements: US20250281676A1 (priority 2020, published 2025)

Columns and labels:
carcinomas = settings: delivered with pH sensitive hydrogels; cited from earlier work
tumor = settings: delivered by thermosensitive, biodegradable hydrogels; gradual release, local delivery to tumor site; cited from earlier work
[1] = Net charge and isoelectric point of peptide; format: physicochemical; settings: pH 7
From the text: The peptide may be purified. For example, the peptide may be lyophilized. […] Other peptides are within the scope of the disclosure.
Exemplary peptides having a charge of +5 to +9 include […](d)[…], […] (d)[…], and […] (d)[…]. In other embodiments, the purified peptide may be substantially neutral. […] Net charge may be selected by peptide design. Design of electrostatic charge in the peptide hydrogel may allow control of charge interaction with cell membrane and proteins.

| Compound | tumor size compared to systemic delivery (carcinomas) | further results |
| --- | --- | --- |
| O=c1[nH]cc(F)c(=O)[nH]1 [5-fluorouracil] | significant decrease in tumor size |  |
| COc1cccc2c1C(=O)c1c(O)c3c(c(O)c1C2=O)C[C@@](O)(C(=O)CO)C[C@@H]3O[C@H]1C[C@H](N)[C@H](O)[C@H](C)O1 [DOX, Doxorubicin] |  | treatment outcomes compared to systemic treatment modalities (tumor): improved treatment outcomes |
| CN(C)C(=N)N=C(N)N [metformin] | significant decrease in tumor size |  |
| VEVSVSVEVdPPTEVSVEVEV-NH2 |  | net charge [1]: net negative charge |
